Values joined by “and” are separate entries in the source; they are usually repeats but may differ in a detail not shown here. Equal entries are not always repeated. Toxic doses and inconclusive results are not listed. How the source made its calls: active means survival T/C of 150% or more; inactive means T/C below 125% in these data.
Test system: CD2F1 mice, L1210 leukemia ip, survival T/C
Test: NCI In Vivo Anticancer Drug Screen. Data for tumor model L1210 Leukemia (intraperitoneal) in CD2F1 (CDF1) mice
Conditions: endpoint: mean survival time, higher = longer survival
How it was run: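 Transplantable tumor in mice; compound-treated vs vehicle-treated groups. Read-out = treated/control ratio of the measured endpoint.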

[1] = dose: 100.0 mg/kg/injection, schedule: Q01DX001 (ip), vehicle: saline
[2] = dose: 200.0 mg/kg/injection, schedule: Q01DX001 (ip), vehicle: saline

Measured: T/C

CC=C(CCCC)CCCC
inactive: [1] 107 % of control | [2] 102 % of control | dose: 400.0 mg/kg/injection, schedule: Q01DX001 (ip), vehicle: saline 103 % of control

O=C(Nc1c(Oc2ccc(Cl)cc2Cl)ccc(Cl)c1S(=O)(=O)O)Nc1c(Oc2ccc(Cl)cc2Cl)ccc(Cl)c1S(=O)(=O)O
inactive: [1] 94 % of control | [2] 93 % of control

COC12C(COC(=O)NCCO)C3=C(C(=O)C(C)=C(N)C3=O)N1CC1NC12 (stereo not given)
inactive: dose: 1.56 mg/kg/injection, schedule: Q01DX009 (ip), vehicle: Klucel (hydroxypropylcellulose) (HPC) 112 % of control | dose: 3.12 mg/kg/injection, schedule: Q01DX009 (ip), vehicle: Klucel (hydroxypropylcellulose) (HPC) 114 % of control and 106 % of control | dose: 6.25 mg/kg/injection, schedule: Q01DX009 (ip), vehicle: Klucel (hydroxypropylcellulose) (HPC) 115 % of control and 120 % of control | dose: 12.5 mg/kg/injection, schedule: Q01DX009 (ip), vehicle: Klucel (hydroxypropylcellulose) (HPC) 115 % of control | dose: 50.0 mg/kg/injection, schedule: Q01DX009 (ip), vehicle: Klucel (hydroxypropylcellulose) (HPC) 114 % of control | dose: 222.0 mg/kg/injection, schedule: Q01DX001 (ip), vehicle: carboxymethylcellulose (CMC) 89 % of control

Nc1cc(NC(c2ccccc2)c2ccccc2)c2[nH]cnc2n1
inactive: dose: 100.0 mg/kg/injection, schedule: Q01DX001 (ip), vehicle: other 91 % of control | dose: 200.0 mg/kg/injection, schedule: Q01DX001 (ip), vehicle: other 95 % of control

COc1ccc(CCN(C=O)CCc2ccc(OC)c(OC)c2)cc1OC
inactive: dose: 12.5 mg/kg/injection, schedule: Q01DX009 (ip), vehicle: other 98 % of control | dose: 25.0 mg/kg/injection, schedule: Q01DX009 (ip), vehicle: other 101 % of control | dose: 50.0 mg/kg/injection, schedule: Q01DX009 (ip), vehicle: other 93 % of control | dose: 100.0 mg/kg/injection, schedule: Q01DX009 (ip), vehicle: other 103 % of control | dose: 200.0 mg/kg/injection, schedule: Q01DX009 (ip), vehicle: other 103 % of control

COc1ccc(Cc2nccc3cc(OC)c(OC)cc23)cc1OC
inactive: dose: 9.4 mg/kg/injection, schedule: Q04DX003 (ip), vehicle: water 115 % of control | dose: 18.7 mg/kg/injection, schedule: Q04DX003 (ip), vehicle: water 93 % of control | dose: 37.5 mg/kg/injection, schedule: Q04DX003 (ip), vehicle: water 96 % of control | dose: 50.0 mg/kg/injection, schedule: Q01DX009 (ip), vehicle: water 96 % of control

Nc1nc(N)c2nc(CNc3ccc(C(=O)NC(CC(=O)O)C(=O)O)cc3)cnc2n1 (stereo not given)
inactive: dose: 6.25 mg/kg/injection, schedule: Q01DX001 (ip), vehicle: saline 101 % of control | dose: 12.5 mg/kg/injection, schedule: Q01DX001 (ip), vehicle: saline 98 % of control | dose: 25.0 mg/kg/injection, schedule: Q01DX001 (ip), vehicle: saline 107 % of control | dose: 50.0 mg/kg/injection, schedule: Q01DX001 (ip), vehicle: saline 104 % of control | [1] 104 % of control | [2] 117 % of control

O=C(O)C(=O)O.O=C(O)C(=O)O.O=C(O)C(=O)O.[Fe]
inactive: dose: 25.0 mg/kg/injection, schedule: Q04DX002 (ip), vehicle: saline with Tween-80 91 % of control | dose: 50.0 mg/kg/injection, schedule: Q04DX002 (ip), vehicle: saline with Tween-80 91 % of control | dose: 100.0 mg/kg/injection, schedule: Q04DX002 (ip), vehicle: saline with Tween-80 87 % of control

CN(C)C(=O)CCC(NC(=O)c1ccc(N(C)Cc2cnc3nc(N)nc(N)c3n2)cc1)C(=O)O (stereo not given)
inactive: dose: 1.0 mg/kg/injection, schedule: Q01DX009 (ip), vehicle: sodium bicarbonate 103 % of control | dose: 10.0 mg/kg/injection, schedule: Q01DX009 (ip), vehicle: sodium bicarbonate 108 % of control

COC(=O)Nc1cc2c3c(c1)CCCN3CCC2
inactive: dose: 100.0 mg/kg/injection, schedule: Q04DX003 (ip), vehicle: saline with Tween-80 104 % of control | dose: 200.0 mg/kg/injection, schedule: Q04DX003 (ip), vehicle: saline with Tween-80 93 % of control

O=c1nc(/C=C(\O)c2ccccc2)ccn1C1OC(CO)C(O)C1O (stereo not given)
inactive: dose: 12.5 mg/kg/injection, schedule: Q01DX005 (ip), vehicle: distilled water + Tween-80 105 % of control | dose: 25.0 mg/kg/injection, schedule: Q01DX005 (ip), vehicle: distilled water + Tween-80 94 % of control | dose: 50.0 mg/kg/injection, schedule: Q01DX005 (ip), vehicle: distilled water + Tween-80 91 % of control | dose: 100.0 mg/kg/injection, schedule: Q01DX005 (ip), vehicle: distilled water + Tween-80 94 % of control | dose: 200.0 mg/kg/injection, schedule: Q01DX005 (ip), vehicle: distilled water + Tween-80 98 % of control

From PubChem BioAssay AID256 (DTP/NCI, 2004)
